We go through 18 molecules from patent US20230117034A1, “PYRAZOLOTRIAZINES” (Bayer Aktiengesellschaft, priority 2019, published 2023).

The subject of test [1] is MDA-MB-231, human breast cancer cells. Kind of test: Proliferation assay MDA-MB-231 (crystal violet, 4 days). Conditions: MDA-MB-231 cells, median, read-out: Prolif-MDA MB-231, IC50-[mol/l] (median). Format: cell-based. In a few lines:
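Growth was measured by crystal violet staining after cells had been treated with compounds (0.01-10 µmol/L, 0.1% DMSO) for 4 days, beginning 24 h after seeding. Values were normalized to a zero-point plate and to untreated controls, and IC50 values were derived by a four-parameter fit.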

Test [2] has as its target T1, CDK12 (nuclear staining in CAL-120 cells) (Homo sapiens, UniProt Q9NYV4).
T1 construct: endogenous in cells; host or cells: CAL-120 human breast cancer cells (DSMZ ACC 459)
Briefly: CDK12 nuclear protein level: immunofluorescence/high content analysis (CAL-120). It is filed as cell-based. Conditions: for DC50: CAL-120 cells, 24 h, immunofluorescence, 50% reduction of nuclear CDK12 staining intensity, median, read-out: CDK12 degradation IF, DC50- [mol/l] (median); for (IC50 CDK12 high ATP) to (Degradation DC50 CDK12) ratio: ratio of IC50 CDK12 high ATP kinase assay to DC50 CDK12 degradation (IF, CAL-120). In a few lines: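 DC50 is the degrader concentration that halves nuclear CDK12 immunofluorescence relative to controls, measured by high-content imaging. CAL-120 cells were exposed to compound for 24 h at 37 °C before PFA fixation, and signal was normalized to DMSO and control wells.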

Test [3] has as its target T2, CDK2/CycE (Homo sapiens, UniProt P24941).
T2 construct: purchased ProQinase GmbH (Freiburg, Germany); host or cells: insect cells (Sf9)
Briefly: CDK2/CycE kinase assay (TR-FRET, 2 mM ATP). It is filed as biochemical. Conditions: 2 mM ATP (high ATP); median; read-out: CDK2/CyclinE, 2 mM ATP (high ATP), IC50 (median). In a few lines:
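Biotin-peptide phosphorylation (0.75 µM substrate, 2 mM ATP final, 25 min, 22 °C) by Sf9-expressed GST-CDK2/GST-CycE, after a 15-min compound pre-binding step. Inhibition scaled between enzyme-free (100%) and uninhibited (0%) wells.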

Each structure is given as a SMILES string. Read-outs that look alike come from different tables or passages of the source.

T1 sequence (Q9NYV4 whole entry): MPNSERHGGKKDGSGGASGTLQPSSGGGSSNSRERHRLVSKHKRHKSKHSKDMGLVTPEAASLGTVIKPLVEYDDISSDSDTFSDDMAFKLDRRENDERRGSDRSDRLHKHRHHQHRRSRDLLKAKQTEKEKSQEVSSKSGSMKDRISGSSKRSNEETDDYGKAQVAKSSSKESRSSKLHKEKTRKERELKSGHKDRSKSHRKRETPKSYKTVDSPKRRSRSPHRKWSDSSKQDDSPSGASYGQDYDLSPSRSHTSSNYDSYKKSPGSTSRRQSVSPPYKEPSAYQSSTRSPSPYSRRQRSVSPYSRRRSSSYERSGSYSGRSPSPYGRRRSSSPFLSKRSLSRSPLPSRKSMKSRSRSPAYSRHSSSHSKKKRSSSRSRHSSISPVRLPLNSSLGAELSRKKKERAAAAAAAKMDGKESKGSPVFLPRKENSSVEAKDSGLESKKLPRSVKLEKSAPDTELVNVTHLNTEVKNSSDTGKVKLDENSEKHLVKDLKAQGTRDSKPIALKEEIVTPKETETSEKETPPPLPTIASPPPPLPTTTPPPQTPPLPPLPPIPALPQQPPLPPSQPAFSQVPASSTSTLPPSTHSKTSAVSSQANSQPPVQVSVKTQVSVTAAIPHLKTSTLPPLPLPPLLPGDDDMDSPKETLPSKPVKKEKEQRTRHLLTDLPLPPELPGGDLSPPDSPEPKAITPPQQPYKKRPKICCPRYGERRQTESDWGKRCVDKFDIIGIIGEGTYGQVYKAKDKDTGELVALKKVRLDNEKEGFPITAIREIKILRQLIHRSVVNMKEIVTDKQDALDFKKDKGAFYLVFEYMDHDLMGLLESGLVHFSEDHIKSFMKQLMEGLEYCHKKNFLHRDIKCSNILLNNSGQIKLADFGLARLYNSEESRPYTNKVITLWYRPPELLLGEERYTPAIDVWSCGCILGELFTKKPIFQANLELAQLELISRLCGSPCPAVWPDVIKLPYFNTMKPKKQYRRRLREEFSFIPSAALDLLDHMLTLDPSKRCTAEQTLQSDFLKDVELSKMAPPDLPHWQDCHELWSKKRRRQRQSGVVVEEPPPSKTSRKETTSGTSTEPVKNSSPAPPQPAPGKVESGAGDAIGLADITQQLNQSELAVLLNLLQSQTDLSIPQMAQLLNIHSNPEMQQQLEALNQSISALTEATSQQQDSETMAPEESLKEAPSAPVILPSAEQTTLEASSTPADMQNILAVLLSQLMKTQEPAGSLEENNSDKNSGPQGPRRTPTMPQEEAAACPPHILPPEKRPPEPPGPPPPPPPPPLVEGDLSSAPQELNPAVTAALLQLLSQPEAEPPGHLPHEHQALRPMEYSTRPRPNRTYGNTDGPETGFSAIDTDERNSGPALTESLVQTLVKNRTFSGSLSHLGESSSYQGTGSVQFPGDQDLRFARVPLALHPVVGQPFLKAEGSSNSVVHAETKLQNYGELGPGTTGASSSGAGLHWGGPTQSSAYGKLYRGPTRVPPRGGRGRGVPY
T1 sequence (O75909 whole entry partner): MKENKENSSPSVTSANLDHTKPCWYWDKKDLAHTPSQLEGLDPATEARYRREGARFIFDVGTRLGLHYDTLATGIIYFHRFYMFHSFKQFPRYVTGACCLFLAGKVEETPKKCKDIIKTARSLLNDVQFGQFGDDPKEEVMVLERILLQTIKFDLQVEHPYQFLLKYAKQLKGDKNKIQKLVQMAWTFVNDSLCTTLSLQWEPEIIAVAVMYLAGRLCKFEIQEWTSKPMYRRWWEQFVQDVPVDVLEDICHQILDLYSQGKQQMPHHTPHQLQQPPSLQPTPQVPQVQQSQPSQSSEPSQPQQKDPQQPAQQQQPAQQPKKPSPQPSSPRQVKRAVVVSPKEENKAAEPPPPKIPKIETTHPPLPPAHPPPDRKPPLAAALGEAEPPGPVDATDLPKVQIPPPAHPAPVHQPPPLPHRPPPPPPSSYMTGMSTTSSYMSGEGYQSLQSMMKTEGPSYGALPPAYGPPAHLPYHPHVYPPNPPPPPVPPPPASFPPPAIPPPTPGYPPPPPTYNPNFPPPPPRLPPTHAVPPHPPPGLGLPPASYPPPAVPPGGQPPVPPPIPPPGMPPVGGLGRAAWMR

As for `C[C@@]1(O)CCN(c2nc(NCc3nc4ccccc4[nH]3)n3ncc(Br)c3n2)C1` (single isomer, unassigned) [Example 281, (3R or S)-1-(4-{[(1H-benzimidazol-2-yl)methyl]amino}-8-bromopyrazolo[1,5-a][1,3,5]triazin-2-yl)-3-methylpyrrolidin-3-ol], the IC50 in test [1] (Homo sapiens, MDA-MB-231, 96 h) was 306 nM. In addition, in test [2], the DC50 was found to be 40.3 nM and the “(IC50 CDK12 high ATP) to (Degradation DC50 CDK12) ratio” value is given as greater than 419. Further, the IC50 in test [3] is 3280 nM.
The corresponding values for `Fc1ccc2[nH]c(CNc3nc(N4C[C@H]5CC[C@@H](C4)N5)nc4c(C5CC5)cnn34)nc2c1F` [Example 294, 8-cyclopropyl-2-[(1R,5S)-3,8-diazabicyclo[3.2.1]octan-3-yl]-N-[(4,5-difluoro-1H-benzimidazol-2-yl)methyl]pyrazolo[1,5-a][1,3,5]triazin-4-amine] are 3.37 nM, 2.73 nM, 684 and 17200 nM.
The corresponding values for `N[C@@H]1[C@@H]2C[C@H]1CN(c1nc(NCc3nc4ccccc4[nH]3)n3ncc(Br)c3n1)C2` [Example 289, 2-[(1R,5S,6s)-6-amino-3-azabicyclo[3.1.1]heptan-3-yl]-N-[(1H-benzimidazol-2-yl)methyl]-8-bromopyrazolo[1,5-a][1,3,5]triazin-4-amine] are 10.3 nM, 3.13 nM, 2240 and 5290 nM.
The corresponding values for `Fc1cc2nc(CNc3nc(N4CCOCC4)nc4c(C5CC5)cnn34)[nH]c2cc1F` [Example 318, 8-cyclopropyl-N-[(5,6-difluoro-1H-benzimidazol-2-yl)methyl]-2-(morpholin-4-yl)pyrazolo[1,5-a][1,3,5]triazin-4-amine] are 4.22 nM, 3.51 nM, 387 and greater than 20000 nM.
For `Fc1cc2nc(CNc3nc(N4CCOCC4)nc4c(C5CC5)cnn34)[nH]c2cc1Cl` [Example 307, N-[(6-chloro-5-fluoro-1H-benzimidazol-2-yl)methyl]-8-cyclopropyl-2-(morpholin-4-yl)pyrazolo[1,5-a][1,3,5]triazin-4-amine], in test [1] (Homo sapiens, MDA-MB-231, 96 h), the IC50 is 5.05 nM. Further, in test [2], the DC50 amounted to 8.26 nM and the “(IC50 CDK12 high ATP) to (Degradation DC50 CDK12) ratio” value was determined as 190. Besides, the IC50 in test [3] was greater than 20000 nM.
The corresponding values for `CN[C@H]1CCN(c2nc(NCc3nc4ccccc4[nH]3)n3ncc(Br)c3n2)C1` [Example 252, N-[(1H-benzimidazol-2-yl)methyl]-8-bromo-2-[(3S)-3-(methylamino)pyrrolidin-1-yl]pyrazolo[1,5-a][1,3,5]triazin-4-amine] are 30.6 nM, 1.17 nM, greater than 17030 and 13300 nM.
As to `CC1CN(C)CCN1c1nc(NCc2nc3ccccc3[nH]2)n2ncc(Br)c2n1` (single isomer, unassigned; enantiomer 1) [Example 260, N-(1H-benzimidazol-2-ylmethyl)-8-bromo-2-[(2R or S)-2,4-dimethylpiperazin-1-yl]pyrazolo[1,5-a][1,3,5]triazin-4-amine (Enantiomer 1)], the IC50 in test [1] stood at 13.4 nM. In addition, in test [2], the DC50 was found to be 1.78 nM and the “(IC50 CDK12 high ATP) to (Degradation DC50 CDK12) ratio” value is on record as 6819. Also, the IC50 in test [3] was determined as 2980 nM.
Consider `Brc1cnn2c(NCc3nc4ccccc4[nH]3)nc(N3C[C@H]4C[C@@H]3CN4)nc12` [Example 269, N-[(1H-benzimidazol-2-yl)methyl]-8-bromo-2-[(1R,4R)-2,5-diazabicyclo[2.2.1]heptan-2-yl]pyrazolo[1,5-a][1,3,5]triazin-4-amine], for which, in test [1] (Homo sapiens, MDA-MB-231, 96 h), the IC50 was determined as 29.3 nM. In addition, in test [2], the DC50 worked out at 3.33 nM and the “(IC50 CDK12 high ATP) to (Degradation DC50 CDK12) ratio” value turned out to be 2588. Moreover, the IC50 in test [3] is 4840 nM.
On to `c1ccc2[nH]c(CNc3nc(N4CCOCC4)nc4c(C5CCCC5)cnn34)nc2c1` [Example 244, N-[(1H-benzimidazol-2-yl)methyl]-8-cyclopentyl-2-(morpholin-4-yl)pyrazolo[1,5-a][1,3,5]triazin-4-amine], for which the IC50 in test [1] (Homo sapiens, MDA-MB-231, 96 h) was 501 nM; in test [3] it was greater than 20000 nM. Besides, the DC50 in test [2] was determined as 101 nM.
For `N[C@@H]1CN(c2nc(NCc3nc4ccccc4[nH]3)n3ncc(Br)c3n2)CC12CC2` [Example 251, 2-[(7S)-7-amino-5-azaspiro[2.4]heptan-5-yl]-N-[(1H-benzimidazol-2-yl)methyl]-8-bromopyrazolo[1,5-a][1,3,5]triazin-4-amine], in test [1] (Homo sapiens, MDA-MB-231, 96 h), the IC50 stood at 2.73 nM. In test [2], the DC50 stood at 0.145 nM and the “(IC50 CDK12 high ATP) to (Degradation DC50 CDK12) ratio” value was found to be 6727. Also, the IC50 in test [3] is 2580 nM.
The corresponding values for `c1ccc2[nH]c(CNc3nc(N4CCNCC4)nc4c(C5CC5)cnn34)nc2c1` [Example 247, N-[(1H-benzimidazol-2-yl)methyl]-8-cyclopropyl-2-(piperazin-1-yl)pyrazolo[1,5-a][1,3,5]triazin-4-amine] are 50.7 nM, 1.38 nM, 10678 and greater than 20000 nM.
For `N[C@H]1CCN(c2nc(NCc3nc4ccccc4[nH]3)n3ncc(Br)c3n2)C1` [Example 245, 2-[(3S)-3-aminopyrrolidin-1-yl]-N-[(1H-benzimidazol-2-yl)methyl]-8-bromopyrazolo[1,5-a][1,3,5]triazin-4-amine], in that order: 14.3 nM, 1.49 nM, greater than 10636 and 5000 nM.
As for `FC(F)(F)c1cnn2c(NCc3nc4cc(Cl)ccc4[nH]3)nc(N3CCOCC3)nc12` [Example 275, N-[(5-chloro-1H-benzimidazol-2-yl)methyl]-2-(morpholin-4-yl)-8-(trifluoromethyl)pyrazolo[1,5-a][1,3,5]triazin-4-amine], the IC50 in test [1] (Homo sapiens, MDA-MB-231, 96 h) came to 3.87 nM. In addition, in test [2], the DC50 is 1.7 nM and the “(IC50 CDK12 high ATP) to (Degradation DC50 CDK12) ratio” value came out at 57. In addition, in test [3], the IC50 is greater than 20000 nM.
In the case of `CC1(O)CCN(c2nc(NCc3nc4ccccc4[nH]3)n3ncc(Br)c3n2)C1` (single isomer, unassigned) [Example 282, (3R or S)-1-(4-{[(1H-benzimidazol-2-yl)methyl]amino}-8-bromopyrazolo[1,5-a][1,3,5]triazin-2-yl)-3-methylpyrrolidin-3-ol], the IC50 in test [1] (Homo sapiens, MDA-MB-231, 96 h) came out at 178 nM; in test [3], 10200 nM. The DC50 in test [2] is 27.9 nM. The “(IC50 CDK12 high ATP) to (Degradation DC50 CDK12) ratio” value in test [2] is greater than 320.
Take `FC1(F)CC1c1cnn2c(NCc3nc4ccccc4[nH]3)nc(N3CCOCC3)nc12` (centres unmarked) [Example 279, N-[(1H-benzimidazol-2-yl)methyl]-8-(2,2-difluorocyclopropyl)-2-(morpholin-4-yl)pyrazolo[1,5-a][1,3,5]triazin-4-amine]: in test [1] (Homo sapiens, MDA-MB-231, 96 h), the IC50 is 34.8 nM. For the same molecule, in test [2], the DC50 is 4.72 nM and the “(IC50 CDK12 high ATP) to (Degradation DC50 CDK12) ratio” value was found to be 2961. Besides, in test [3], the IC50 is greater than 20000 nM.
The corresponding values for `Fc1ccc2[nH]c(CNc3nc(N4CCOCC4)nc4c(C5CCC5)cnn34)nc2c1F` [Example 264, 8-cyclobutyl-N-[(4,5-difluoro-1H-benzimidazol-2-yl)methyl]-2-(morpholin-4-yl)pyrazolo[1,5-a][1,3,5]triazin-4-amine] are 23 nM, 3.55 nM, 627 and greater than 20000 nM.
Regarding `c1ccc2[nH]c(CNc3nc(N4CCOCC4)nc4c(C5CCC5)cnn34)nc2c1` [Example 263, N-[(1H-benzimidazol-2-yl)methyl]-8-cyclobutyl-2-(morpholin-4-yl)pyrazolo[1,5-a][1,3,5]triazin-4-amine], the IC50 in test [1] (Homo sapiens, MDA-MB-231, 96 h) is 73.2 nM; in test [3], greater than 20000 nM. The DC50 in test [2] stood at 23.4 nM. Besides, in test [2], the “(IC50 CDK12 high ATP) to (Degradation DC50 CDK12) ratio” value worked out at 294.
As for `CC1CN(C)CCN1c1nc(NCc2nc3ccccc3[nH]2)n2ncc(Br)c2n1` (single isomer, unassigned; enantiomer 2) [Example 261, N-(1H-benzimidazol-2-ylmethyl)-8-bromo-2-[(2R or S)-2,4-dimethylpiperazin-1-yl]pyrazolo[1,5-a][1,3,5]triazin-4-amine (Enantiomer 2)], the IC50 was 99.9 nM in test [1] and 7290 nM in test [3]. The DC50 in test [2] is 19.9 nM. Besides, the “(IC50 CDK12 high ATP) to (Degradation DC50 CDK12) ratio” value in test [2] was greater than 942.
